From article PMC9029538, “Dosing Colistimethate Every 8 h Results in Higher Plasma Concentrations of Active Colistin Than Every 12-Hourly Dosing without Increase in Nephrotoxicity: A Phase 1 Pharmacokinetics Trial in Healthy Adult Volunteers” (Antibiotics, 2022)
Where two headings read alike, the source gives them in different places. Where a SMILES comes first, the peptide text is derived from it. Bridges are numbered along the chain shown (N, C = ends). [ ]: non-standard residue; d: D form. The star is where a group is joined. X1 = CC[C@H](C)CCCCC(=O)*; Dab = NCC[C@H](N)C(=O)O

Columns and labels:
[1] = Plasma pharmacokinetics after IV CMS (Period 1); conditions: for AUC(0-t) / AUC(0-inf) / clearance / Cmax / Vd / half-life / Tmax: human, in vivo, iv; for clearance: CL; for Vd: Vdss; for Tmax: median (min-max)
Method: (§1) During dosing Period 1, subjects in Cohorts 1, 2, and 3 received 2 to 3 doses of IV CMS (total exposure 5–10 mg/kg) based on the specific cohort regimen. During dosing Period 2, the same subjects then received 2 to 4 doses of 75 mg of CMS via aerosolized administration, and during dosing Period 3, subjects received a combination of IV and aerosolized CMS based on the specific cohort regimen. Each dosing period was followed by a washout period of at least 3 days (Table 1).
(§2) For all plasma PK collections, 3 mL samples of whole blood were drawn into collection tubes containing sodium heparin and placed immediately on ice at specified time intervals. […] The blood was centrifuged at 2500× g within 2 h of collection, and the plasma fraction was removed and frozen at −70 °C for shipment to the Analytical Pharmacology Laboratory at the University of Toledo.
(§3) The PK analysis was conducted using Phoenix™ WinNonlin® Version 6.2 (Pharsight, a Certara Company).
(§4) Concentration versus time profiles were investigated for each of the four colistin analytes. These profiles were augmented by the inclusion of estimated concentrations at additional time points, including dosing Period 1—immediately prior to the final IV dose; dosing Period 3—immediately prior to the final IV dose; and after the final IV dose. The following PK parameters were estimated for each: maximum observed concentration (Cmax), area under the plasma concentration versus time curve, AUC (e.g., AUC 0–inf), AUC 0–t) versus time curve, time to maximum observed concentration (Tmax), elimination half-life (t1/2), slope of the post-distributive terminal portion of plasma concentration versus time curve (Kel), total body clearance/bioavailability (CL/F), and the apparent steady-state volume of distribution/bioavailability ([…]). The concentrations of intravenously administered CMS, aerosolized drug, and both delivery methods used simultaneously were compared. In addition, the presence or absence of a proportionality dose-dependent effect was determined.

clinical = experiment: clinical
Method: as §1, §2, §3, §4

[2] = Period 3, Cohort 1: IV 2.5 mg/kg q12h x 2 doses + aerosol 75 mg colistin base activity q12h x 2 doses; plasma after final dose; median (min-max)
Method: as §1, §2, §3
Concentration versus time profiles were investigated for each of the four colistin analytes. These profiles were augmented by the inclusion of estimated concentrations at additional time points, including dosing Period 1—immediately prior to the final IV dose; dosing Period 3—immediately prior to the final IV dose; and after the final IV dose. […] In addition, the presence or absence of a proportionality dose-dependent effect was determined.

[3] = 2.5 mg/kg, Period 1, Cohort 1: IV 2.5 mg/kg colistin base activity q12h x 2 doses, plasma after final dose, mean (SD), SD
[4] = 2.5 mg/kg, Period 1, Cohort 2: IV 2.5 mg/kg colistin base activity q8h x 3 doses, plasma after final dose, mean (SD), SD
[5] = 3.3 mg/kg, Period 1, Cohort 3: IV 3.3 mg/kg colistin base activity q8h x 3 doses, plasma after final dose, mean (SD), SD
[6] = Period 2, Cohort 2: aerosol 75 mg colistin base activity q8h x 3 doses, plasma after final dose, mean (SD), SD

SMILES: CC[C@H](C)CCCCC(=O)N[C@@H](CCN)C(=O)N[C@H](C(=O)N[C@@H](CCN)C(=O)N[C@H]1CCNC(=O)[C@H]([C@@H](C)O)NC(=O)[C@H](CCN)NC(=O)[C@H](CCN)NC(=O)[C@H](CC(C)C)NC(=O)[C@@H](CC(C)C)NC(=O)[C@H](CCN)NC1=O)[C@@H](C)O [colistin A] (X1-[Dab]T[Dab][Dab][Dab][dL]L[Dab][Dab]T; lactam 4-C)
- AUC(0-t) [1, 3]: 21800 ng·h/mL
- AUC(0-t) [1, 4]: 30400 ng·h/mL
- AUC(0-inf) [1, 3]: 23800 ng·h/mL
- AUC(0-inf) [1, 4]: 33000 ng·h/mL
- clearance [1, 3]: 103 mL/min
- clearance [1, 4]: 74.5 mL/min
- Cmax [1, 3]: 3950 ng/mL
- Cmax [1, 4]: 5360 ng/mL
- Vd [1, 3]: 29.5 L
- Vd [1, 4]: 21.7 L
- half-life ([1]; 2.5 mg/kg, t1/2, Period 1, Cohort 1: IV 2.5 mg/kg colistin base activity q12h x 2 doses, plasma after final dose, mean (SD), SD): 3.32 h
- half-life ([1]; 2.5 mg/kg, t1/2, Period 1, Cohort 2: IV 2.5 mg/kg colistin base activity q8h x 3 doses, plasma after final dose, mean (SD), SD): 3.47 h
- Tmax ([1]; 2.5 mg/kg, Period 1, Cohort 1: IV 2.5 mg/kg colistin base activity q12h x 2 doses, plasma after final dose): 1.02 h
- Tmax ([1]; 2.5 mg/kg, Period 1, Cohort 2: IV 2.5 mg/kg colistin base activity q8h x 3 doses, plasma after final dose): 0.6 h
- AUC(0-t) [1, 5]: 49100 ng·h/mL
- AUC(0-inf) [1, 5]: 52400 ng·h/mL
- clearance [1, 5]: 64.5 mL/min
- Cmax [1, 5]: 8740 ng/mL
- Vd [1, 5]: 22.2 L
- half-life ([1]; 3.3 mg/kg, t1/2, Period 1, Cohort 3: IV 3.3 mg/kg colistin base activity q8h x 3 doses, plasma after final dose, mean (SD), SD): 4.22 h
- Tmax ([1]; 3.3 mg/kg, Period 1, Cohort 3: IV 3.3 mg/kg colistin base activity q8h x 3 doses, plasma after final dose): 1 h
- half-life ([1]; elimination t1/2 (half-life, as stated in text), plasma): ~3.5 h
- time concentrations stay above the target of 2 μg/mL after dosing ([1]; q8h dosing, 8 h between doses): 6 h
- t1/2 (clinical; Period 2, Cohort 1: aerosol 75 mg colistin base activity q12h x 2 doses, plasma after final dose, mean (SD)): 8.37 h
- CL/F (clinical; [6]): 8.12 (0.628) L/h
- t1/2 (clinical; [6]): 7.81 (1.33) h
- t1/2 (clinical; Period 2, Cohort 3: aerosol 75 mg colistin base activity q6h x 4 doses, plasma after final dose, mean (SD), SD): 26.0 (31.2) h
- circulating plasma concentrations following aerosol administration alone (clinical; Period 2, aerosol only): low and not related to the dose administered
- AUC(0-t) (clinical; human, in vivo, inhaled or intranasal, 75 mg, AUC(0-t),, SD): 4220 ng·h/mL
- CL/F (clinical; human, in vivo, inhaled or intranasal, 75 mg, CL/F): 136 mL/min
- Cmax (clinical; human, in vivo, inhaled or intranasal, 75 mg, Cmax,, SD): 493 ng/mL
- Vd/F (clinical; human, in vivo, inhaled or intranasal, 75 mg, Vdss/F): 98.7 L
- Tmax [2]: 1.43 (0.883 – 2.38) h
